This passage reports IC50 and inhibition results from ChEMBL document CHEMBL4406823 (Eur J Med Chem, 2019).

SMILES strings stand for the structures.

A word on the IC50: it is the concentration that gives 50% inhibition. As usually defined, the inhibition is the percentage by which the read-out fell short of the control.

For one assay, the system named is MDA-MB-231. Nature of the assay: Antiproliferative activity against human MDA-MB-231 cells assessed as inhibition of cell proliferation incubated for 72 hrs by MTT assay. It is filed as functional, cell-based. The following applies: MDA-MB-231, 72 h. A general note: Tetrazolium dyes change colour on reduction, which living cells bring about.
In a further assay the test system is HL-60. Nature of the assay: Antiproliferative activity against human HL60 cells assessed as inhibition of cell proliferation incubated for 72 hrs by MTT assay. The following applies: HL-60, 72 h. In kind it is functional, cell-based.
The test system of the next assay is SEM cells. Nature of the assay: Antiproliferative activity against human SEM cells assessed as inhibition of cell proliferation incubated for 72 hrs by MTT assay. It is filed as functional, cell-based.
In a further assay the test system is HeLa. Nature of the assay: cells. The note with it: Homo sapiens, 72 h.
In a further assay the test system is HT-29. Nature of the assay: cells. The following applies: Homo sapiens, HT-29, 72 h.
A further assay has as its system MCF7. Nature of the assay: cells. The following applies: Homo sapiens, MCF7, 72 h.
The next assay concerns the target Tubulin (Bos taurus, UniProt Q6B856+Q862L2+Q862F3). Nature of the assay: Inhibition of bovine brain tubulin assembly using GTP as substrate incubated for 20 mins by spectrophotometric method.
The target of another assay is Tubulin (Bos taurus) (UniProt Q6B856+Q862L2+Q862F3). Nature of the assay: Displacement of [3H]-colchicine from bovine brain tubulin at 5 uM incubated for 1 hr by relative to control.

Description for HT-29: Antiproliferative activity against human HT-29 cells assessed as inhibition of cell proliferation incubated for 72 hrs by MTT assay
Description for HeLa: Antiproliferative activity against human HeLa cells assessed as inhibition of cell proliferation incubated for 72 hrs by MTT assay
Description for MCF7: Antiproliferative activity against human MCF7 cells assessed as inhibition of cell proliferation incubated for 72 hrs by MTT assay

In the case of `COc1cc(-c2n[nH]cc2-c2ccc(C(F)(F)F)cc2)cc(OC)c1OC`, the IC50 with MDA-MB-231 was 523 nM; with HL-60, 179 nM; in the assay on SEM cells, 187 nM; in the assay with HeLa it was 227 nM; in the assay with HT-29, 67.4 nM; in the assay with MCF7, 4380 nM.
Regarding `COc1ccc(/C=C\c2cc(OC)c(OC)c(OC)c2)cc1O` [COMBRETASTATIN A4], the concentration for half-maximal inhibition (IC50) in the assay with MDA-MB-231 is 4.5 nM; with SEM cells, 5.1 nM.
On to `CCCc1ccc(-c2c[nH]nc2-c2cc(OC)c(OC)c(OC)c2)cc1`, for which the IC50 was determined as 1550 nM with MDA-MB-231; 553 nM with HL-60; 406 nM with SEM cells; 361 nM in the assay with HeLa; 541 nM in the assay with HT-29; 2790 nM in the assay on MCF7.
Consider `CCSc1ccc(-c2c[nH]nc2-c2cc(OC)c(OC)c(OC)c2)cc1`, for which the half-inhibitory concentration (IC50) in the assay on MDA-MB-231 came to 31.4 nM; with HL-60, 29.7 nM; with SEM cells, 13.9 nM; at Tubulin, 480 nM; with HeLa it was 12.5 nM; in the assay with HT-29, 5.4 nM. The compound also returned an IC50 in the assay on MCF7 of 492 nM. This compound also had an inhibition at Tubulin (Bos taurus) of 85%.
`COc1ccc(-c2c[nH]nc2-c2cc(OC)c(OC)c(OC)c2)cc1Cl`: the IC50 in the assay on MDA-MB-231 turned out to be 21.5 nM; in the assay with HL-60 it was 17 nM; in the assay with SEM cells it was 2.4 nM; against Tubulin, 520 nM; in the assay with HeLa it was 1.4 nM; in the assay on HT-29, 0.2 nM. The same compound registered an IC50 with MCF7 of 1390 nM. The compound further yielded an inhibition at Tubulin (Bos taurus) of 85%.
As to `COc1ccc(-c2c[nH]nc2-c2cc(OC)c(OC)c(OC)c2)cc1`, the 50% inhibitory concentration (IC50) in the assay on MDA-MB-231 worked out at 8.6 nM; in the assay with HL-60, 4.4 nM; in the assay on SEM cells it was 1 nM; against Tubulin it was 370 nM; in the assay with HeLa it was 6 nM; with HT-29, 10.5 nM. Also, the IC50 in the assay on MCF7 was found to be 16.6 nM. On Tubulin (Bos taurus), this compound showed an inhibition of 86%.
Take `COc1cc(-c2n[nH]cc2-c2cc(C)c(OC)c(C)c2)cc(OC)c1OC`: the half-inhibitory concentration (IC50) was above 10000 nM in the assay with MDA-MB-231; above 10000 nM with HL-60; 3340 nM in the assay on SEM cells; above 10000 nM in the assay on HeLa; above 10000 nM in the assay on HT-29; above 10000 nM in the assay on MCF7.
Consider `COc1ccc(-c2c[nH]nc2-c2cc(OC)c(OC)c(OC)c2)cc1C`, for which the 50% inhibitory concentration (IC50) was 2680 nM with MDA-MB-231; 17.7 nM in the assay with HL-60; 17.2 nM in the assay on SEM cells; 440 nM on Tubulin; 32.9 nM in the assay on HeLa; 37.3 nM with HT-29. The compound further came in with an IC50 with MCF7 above 10000 nM. Also, the inhibition on Tubulin (Bos taurus) came out at 81%.
As for `CCc1ccc(-c2c[nH]nc2-c2cc(OC)c(OC)c(OC)c2)cc1`, the IC50 in the assay on MDA-MB-231 was 3270 nM; in the assay on HL-60, 23.3 nM; in the assay on SEM cells, 18.7 nM; against Tubulin, 520 nM; in the assay on HeLa, 33.5 nM; in the assay with HT-29 it was 41.3 nM. Besides, the IC50 in the assay with MCF7 is above 10000 nM. The inhibition on Tubulin (Bos taurus) was determined as 85%.
For the compound `COc1cc(-c2n[nH]cc2-c2ccc(C)cc2)cc(OC)c1OC`, the IC50 worked out at 10.6 nM with MDA-MB-231; 11.9 nM in the assay with HL-60; 2.6 nM in the assay on SEM cells; 370 nM against Tubulin; 11.1 nM with HeLa; 28.2 nM in the assay on HT-29. For the same compound, the midpoint of inhibition in the assay with MCF7, the IC50, lay at 127 nM. At Tubulin (Bos taurus), this compound showed an inhibition of 88%.
As for `COc1cc(-c2c[nH]nc2-c2cc(OC)c(OC)c(OC)c2)ccc1C`, the half-maximal inhibitory concentration (IC50) in the assay with MDA-MB-231 was 5280 nM; with HL-60, 160 nM; with SEM cells, 305 nM; in the assay with HeLa, 287 nM; in the assay on HT-29 it was 316 nM; in the assay with MCF7 it was above 10000 nM.
Turning to `COc1cc(-c2n[nH]cc2-c2ccc(OC(F)(F)F)cc2)cc(OC)c1OC`, the IC50 in the assay with MDA-MB-231 was 5740 nM; with HL-60, 1750 nM; in the assay with SEM cells, 2470 nM; in the assay on HeLa, 3380 nM; in the assay on HT-29, 2420 nM; in the assay on MCF7 it was above 10000 nM.
